Experiments:
Format in all cases: cell-based
ZBTB7A = target: T1, ZBTB7A (Homo sapiens, UniProt O95365+Q96SW2); assay: HUDEP-2 ZBTB7A HiBiT degradation assay; conditions: HiBiT-tagged ZBTB7A degradation in HUDEP-2 cells, 24 hours of treatment; read-out: ZBTB7A EC50
T1 construct: HUDEP-2 cells engineered to express a HiBiT tag in either the WIZ (Widely interspaced zinc finger) or ZBTB7A
Protocol: (§1) WIZ Assay and ZBTB7A EC50 Assays. The HiBiT degradation assays for WIZ and ZBTB7A in HUDEP-2 cells were performed as described below. HUDEP-2 cells engineered to express a HiBiT tag in either the WIZ (Widely interspaced zinc finger) or ZBTB7A (Zinc Finger And BTB Domain Containing 7A) proteins were maintained in low attachment flasks in StemSpan SFEM II media supplemented with Penicillin-Streptomycin (50 U/mL), rhSCF (50 ng/mL), rhEPO (3 IU/mL), dexamethasone (0.4 μg/mL) and doxycycline (1 μg/mL). Prior to start of the assay, cell count and viability were measured by trypan blue exclusion using the Vi-cell XR cell viability analyzer.
For the HUDEP-2 ZBTB7A HiBiT assay, cell count and viability were measured by trypan blue exclusion using the Vi-cell XR cell viability analyzer and the cells were transferred to a 50 mL conical and centrifuged at 500 g for five minutes. Cells were resuspended in fresh IMDM media supplemented with L-Glutamine (1×), Penicillin-Streptomycin (50 U/mL), holo-transferrin (330 μg/mL), heparin (2 IU/mL), r-human Insulin (10 μg/mL), rhEPO (3 IU/mL), rhSCF (100 ng/mL)+Dox (1 μg/mL) and 5% human plasma in low attachment flasks, which were placed in a 37° C. incubator with 5% CO2. After 48 hours, cell count and viability were measured by trypan blue exclusion using the Vi-cell XR cell viability analyzer. The HUDEP-2 ZBTB7A cells were transferred to a 50 mL conical, centrifuged at 500 g for five minutes and resuspended at a density of 1.0×10^6 cells/ml in IMDM media supplemented with L-Glutamine (1×), Penicillin-Streptomycin (50 U/mL), holo-transferrin (330 μg/mL), heparin (2 IU/mL), r-human Insulin (10 μg/mL), rhEPO (3 IU/mL), rhSCF (100 ng/mL)+Dox (1 μg/mL) and 5% human plasma. Forty microliters of cell suspension was dispensed into 384-well Low Flange White Flat Bottom Polystyrene TC-treated Microplates containing pre-dispensed compounds, using a VIAFLO 384 liquid hander, and placed in a 37° C. incubator with 5% CO2. […] After 24 hours of treatment, 40 μL Nano-Glo HiBiT Lytic Detection System reagent was dispensed into each well using a VIAFLO 384 liquid hander. Plates were incubated for 25 minutes at room temperature and the luminescence was read as relative luminescent units using the EnVision plate reader. EC50 and Y-min values were calculated using curves calculated from dotmatics software after the normalization to the DMSO control of 10 different concentrations: 10, 3.33, 1.11, 0.37, 0.12, 0.04 0.0137, 0.0046, 0.0015 and […] respectively.

WIZ = target: T2, WIZ (Homo sapiens, UniProt O95785+Q96SW2); assay: HUDEP-2 WIZ HiBiT degradation assay; conditions: HiBiT-tagged WIZ degradation in HUDEP-2 cells, 24 hours of treatment; read-out: WIZ EC50
T2 construct: HUDEP-2 cells engineered to express a HiBiT tag in either the WIZ (Widely interspaced zinc finger) or ZBTB7A
Protocol: as §1
For the HUDEP-2 WIZ HiBiT assay, cells were transferred to a 50 mL conical and centrifuged at 500 g for five minutes. Cells were resuspended in fresh StemSpan SFEM II media supplemented with Penicillin-Streptomycin (50 U/mL), rhSCF (50 ng/mL), rhEPO (3 IU/mL), dexamethasone (0.4 μg/mL) and doxycycline (1 μg/mL) at a density of 1.0×10^6 cells/ml. Forty microliters of cell suspension was dispensed into 384-well Low Flange White Flat Bottom Polystyrene TC-treated Microplates containing pre-dispensed compounds, using a VIAFLO 384 liquid hander, and placed in a 37° C. incubator with 5% CO2. […] After 24 hours of treatment, 40 μL Nano-Glo HiBiT Lytic Detection System reagent was dispensed into each well using a VIAFLO 384 liquid hander. Plates were incubated for 25 minutes at room temperature and the luminescence was read as relative luminescent units using the EnVision plate reader. EC50 and Y-min values were calculated using curves calculated from dotmatics software after the normalization to the DMSO control of 10 different concentrations: 10, 3.33, 1.11, 0.37, 0.12, 0.04 0.0137, 0.0046, 0.0015 and […] respectively.

HbF = HbF HiBiT induction assay in HUDEP-2 cells; conditions: HUDEP-2 cells with HiBiT tag in HBG1/2, 72 hours of treatment; area under the dose response curve, higher AUC = greater HbF induction
Protocol: HbF HiBiT induction assay. The HiBiT induction assay for HbF in HUDEP-2 cells was performed as described below. HUDEP-2 cells engineered to express a HiBiT tag in HBG1/2 were maintained at a density of 0.1-1×10^6 cells/ml in StemSpan SFEM II supplemented with 1% penicillin/streptomycin, hSCF (50 ng/mL), erythropoietin (EPO; 3 IU/mL), dexamethasone (DEX; 0.4 μg/mL), and doxycycline hyclate (DOX; 1 μg/mL). The cells were cultured in low adherence flasks, in a humidified incubator, set at 37° C. with 5% CO2. Cell counts and viability were measured by trypan blue exclusion using the Vi-CELL XR cell viability analyzer and the cell growth was consistently maintained in log phase.
Prior to the start of experiments, HbF HiBiT-tagged HUDEP-2 cells were transferred to a 50 mL conical and centrifuged at 500×g for 5 minutes, the supernatant removed, and the pellet washed in 5 mL of 1×PBS. The washed cells were centrifuged again at 500×g for 5 minutes and resuspended in IMDM containing; 1×glutamine, 1×penicillin/streptomycin, holo-transferrin (330 μg/mL), heparin (2 IU/mL), r-human insulin (10 μg/mL), EPO (3 IU/mL), 5% human plasma, hSCF (100 ng/mL) and DOX (1 μg/mL) to a final density of 0.3×10^6 cells/mL. Forty microliters of cell suspension were dispensed into 384-well Low Flange White Flat Bottom Polystyrene TC-treated Microplates containing pre-dispensed compounds, using a VIAFLO 384 liquid hander, and placed in a humidified incubator at 37° C. with 5% CO2. […] After 72 hours of treatment, 40 μL of Nano-Glo HiBiT Lytic Solution (prepared according to manufacturer's instructions) were dispensed into each well using a VIAFLO 384 liquid handler, and the plates were shaken for 20 seconds. Plates were incubated for 20 minutes at room temperature, and the luminescence was read as relative luminescent units using an EnVision plate reader.
Dose response curves were generated, and EC50, Ymax, and then area under the curve (AUC) values were calculated. HbF induction was measured using the calculated area under the curve (AUC) value, with higher AUC values indicative of greater HbF induction relative to lower AUC values.

T1 sequence (O95365 whole entry): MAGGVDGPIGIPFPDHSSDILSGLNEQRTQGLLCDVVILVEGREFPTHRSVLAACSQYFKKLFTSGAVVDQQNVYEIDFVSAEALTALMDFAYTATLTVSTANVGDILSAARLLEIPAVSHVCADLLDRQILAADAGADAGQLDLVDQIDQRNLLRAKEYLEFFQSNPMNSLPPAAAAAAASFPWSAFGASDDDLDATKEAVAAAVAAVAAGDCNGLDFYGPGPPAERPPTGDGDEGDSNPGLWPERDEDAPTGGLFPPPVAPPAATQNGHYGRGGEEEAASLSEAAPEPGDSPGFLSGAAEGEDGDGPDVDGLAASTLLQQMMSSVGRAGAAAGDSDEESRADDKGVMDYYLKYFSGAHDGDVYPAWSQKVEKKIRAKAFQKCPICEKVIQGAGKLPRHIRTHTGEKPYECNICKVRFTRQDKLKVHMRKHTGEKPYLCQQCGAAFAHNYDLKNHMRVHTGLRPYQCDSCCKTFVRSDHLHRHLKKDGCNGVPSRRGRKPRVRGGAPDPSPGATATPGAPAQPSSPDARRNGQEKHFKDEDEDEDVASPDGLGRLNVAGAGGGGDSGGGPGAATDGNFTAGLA
T1 sequence (Q96SW2 whole entry): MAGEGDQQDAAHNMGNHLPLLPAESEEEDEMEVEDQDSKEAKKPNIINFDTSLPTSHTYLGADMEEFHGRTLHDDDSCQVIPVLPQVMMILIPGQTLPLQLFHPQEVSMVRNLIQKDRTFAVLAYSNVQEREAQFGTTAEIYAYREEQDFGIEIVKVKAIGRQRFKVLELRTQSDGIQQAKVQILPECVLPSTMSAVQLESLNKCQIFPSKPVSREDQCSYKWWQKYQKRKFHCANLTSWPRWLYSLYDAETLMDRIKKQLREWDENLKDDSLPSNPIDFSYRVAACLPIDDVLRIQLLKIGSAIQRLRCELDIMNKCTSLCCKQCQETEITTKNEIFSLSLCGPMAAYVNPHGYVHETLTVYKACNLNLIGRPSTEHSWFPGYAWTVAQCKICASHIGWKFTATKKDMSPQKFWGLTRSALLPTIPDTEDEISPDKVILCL
T1 sequence (Q16531 whole entry partner): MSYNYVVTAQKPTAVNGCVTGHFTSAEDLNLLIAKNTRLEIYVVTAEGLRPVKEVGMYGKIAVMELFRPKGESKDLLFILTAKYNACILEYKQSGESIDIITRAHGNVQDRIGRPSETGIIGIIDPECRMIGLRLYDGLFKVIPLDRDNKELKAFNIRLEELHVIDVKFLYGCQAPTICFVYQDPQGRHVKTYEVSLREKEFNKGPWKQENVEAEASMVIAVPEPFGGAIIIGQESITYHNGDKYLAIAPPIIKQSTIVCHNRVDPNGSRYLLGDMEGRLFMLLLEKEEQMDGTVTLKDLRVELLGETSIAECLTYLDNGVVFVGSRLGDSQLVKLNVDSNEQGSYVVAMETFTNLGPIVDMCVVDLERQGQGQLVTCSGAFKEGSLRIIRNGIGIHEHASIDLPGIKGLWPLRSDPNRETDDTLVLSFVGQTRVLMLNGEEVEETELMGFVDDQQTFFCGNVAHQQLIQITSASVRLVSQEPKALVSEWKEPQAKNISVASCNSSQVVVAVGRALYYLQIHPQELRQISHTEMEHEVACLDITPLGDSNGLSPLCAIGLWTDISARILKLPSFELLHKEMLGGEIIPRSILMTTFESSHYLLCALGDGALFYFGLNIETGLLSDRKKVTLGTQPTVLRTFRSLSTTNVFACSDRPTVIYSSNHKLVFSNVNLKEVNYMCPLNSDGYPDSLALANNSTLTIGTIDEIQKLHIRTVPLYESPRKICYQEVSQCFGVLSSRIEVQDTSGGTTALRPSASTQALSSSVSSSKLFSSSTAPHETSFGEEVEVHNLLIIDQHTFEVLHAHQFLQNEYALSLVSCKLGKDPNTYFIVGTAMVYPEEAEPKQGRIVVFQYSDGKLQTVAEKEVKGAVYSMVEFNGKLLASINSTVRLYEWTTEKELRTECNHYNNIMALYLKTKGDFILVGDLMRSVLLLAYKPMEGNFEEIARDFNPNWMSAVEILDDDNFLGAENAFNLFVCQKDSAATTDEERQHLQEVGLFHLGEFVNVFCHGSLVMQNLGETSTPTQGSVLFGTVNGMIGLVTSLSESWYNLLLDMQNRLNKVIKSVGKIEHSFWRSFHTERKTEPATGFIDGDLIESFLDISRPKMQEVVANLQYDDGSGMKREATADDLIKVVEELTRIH
T2 sequence (O95785 whole entry): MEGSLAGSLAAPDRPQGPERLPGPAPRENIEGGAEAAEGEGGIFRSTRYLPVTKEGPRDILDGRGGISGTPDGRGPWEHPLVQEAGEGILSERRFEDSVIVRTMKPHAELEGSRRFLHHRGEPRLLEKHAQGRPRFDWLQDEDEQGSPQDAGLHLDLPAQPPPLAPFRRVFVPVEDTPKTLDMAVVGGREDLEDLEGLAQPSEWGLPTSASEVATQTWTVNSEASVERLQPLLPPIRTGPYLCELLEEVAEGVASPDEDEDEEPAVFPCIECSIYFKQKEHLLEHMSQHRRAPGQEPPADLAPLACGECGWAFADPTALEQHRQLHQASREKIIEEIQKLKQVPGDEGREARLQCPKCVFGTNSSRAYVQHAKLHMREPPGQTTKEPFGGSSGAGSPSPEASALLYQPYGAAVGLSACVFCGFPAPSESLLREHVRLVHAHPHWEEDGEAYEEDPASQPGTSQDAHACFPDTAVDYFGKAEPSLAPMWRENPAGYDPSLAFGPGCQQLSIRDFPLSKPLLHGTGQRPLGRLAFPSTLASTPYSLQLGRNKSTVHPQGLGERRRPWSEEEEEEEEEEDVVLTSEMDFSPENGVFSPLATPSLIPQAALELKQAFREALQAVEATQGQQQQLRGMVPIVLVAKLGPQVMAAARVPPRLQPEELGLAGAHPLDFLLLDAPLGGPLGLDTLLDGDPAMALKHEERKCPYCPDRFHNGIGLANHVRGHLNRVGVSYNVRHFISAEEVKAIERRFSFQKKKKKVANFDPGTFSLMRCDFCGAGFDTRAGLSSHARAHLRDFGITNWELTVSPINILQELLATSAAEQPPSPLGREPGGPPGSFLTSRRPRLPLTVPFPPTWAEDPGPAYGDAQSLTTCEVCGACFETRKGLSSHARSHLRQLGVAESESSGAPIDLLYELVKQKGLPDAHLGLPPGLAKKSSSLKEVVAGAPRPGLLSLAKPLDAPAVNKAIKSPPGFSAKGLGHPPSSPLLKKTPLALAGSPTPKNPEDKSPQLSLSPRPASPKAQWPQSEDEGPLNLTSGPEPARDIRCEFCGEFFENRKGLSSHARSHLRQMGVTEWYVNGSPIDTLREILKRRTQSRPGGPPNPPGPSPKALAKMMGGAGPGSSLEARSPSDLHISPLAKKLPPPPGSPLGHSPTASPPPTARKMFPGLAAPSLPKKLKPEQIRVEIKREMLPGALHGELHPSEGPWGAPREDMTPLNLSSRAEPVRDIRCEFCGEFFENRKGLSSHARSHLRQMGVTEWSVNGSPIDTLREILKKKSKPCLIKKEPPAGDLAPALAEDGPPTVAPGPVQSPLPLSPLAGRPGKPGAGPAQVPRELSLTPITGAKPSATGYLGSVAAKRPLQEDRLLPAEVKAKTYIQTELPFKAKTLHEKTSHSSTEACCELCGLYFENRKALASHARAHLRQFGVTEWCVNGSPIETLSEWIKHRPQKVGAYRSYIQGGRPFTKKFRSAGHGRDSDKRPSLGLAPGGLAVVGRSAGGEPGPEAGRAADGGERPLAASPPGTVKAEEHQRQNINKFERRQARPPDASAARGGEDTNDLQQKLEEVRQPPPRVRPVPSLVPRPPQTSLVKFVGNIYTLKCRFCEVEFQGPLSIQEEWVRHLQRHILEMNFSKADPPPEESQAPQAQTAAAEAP
T2 sequence (Q96SW2 whole entry): as the sequence (Q96SW2 whole entry) above
T2 sequence (Q16531 whole entry partner): as the sequence (Q16531 whole entry partner) above

| SMILES | DC50 (ZBTB7A) | DC50 (WIZ) | HBF AUC (HbF) |
| --- | --- | --- | --- |
| Cc1cc(-c2cc3c(cc2Nc2cccc4c2C(=O)N(C2CCC(=O)NC2=O)C4=O)N(C)CCO3)ccn1 (centres unmarked) [Compound 1, 2-(2,6-dioxopiperidin-3-yl)-4-((4-methyl-7-(2-methylpyridin-4-yl)-3,4-dihydro-2H-benzo[b][1,4]oxazin-6-yl)amino)isoindoline-1,3-dione] | 18 nM | 21 nM | + (+ = 15 ≤ AUC < 100) |
| Cc1cc(-c2cc3c(cc2Nc2cccc4c2C(=O)N(C2CCC(=O)NC2=O)C4=O)N(C)C(=O)CO3)ccn1 (centres unmarked) [Compound 2, 2-(2,6-dioxopiperidin-3-yl)-4-((4-methyl-7-(2-methylpyridin-4-yl)-3-oxo-3,4-dihydro-2H-benzo[b][1,4]oxazin-6-yl)amino)isoindoline-1,3-dione] | 11 nM | 6 nM | +++ (+++ = AUC ≥ 150) |
| Cc1cc(-c2cc3c(cc2Nc2cccc4c2C(=O)N([C@H]2CCC(=O)NC2=O)C4=O)N(C)[C@H](C)CO3)ccn1 [Compound 3, 4-(((R)-3,4-dimethyl-7-(2-methylpyridin-4-yl)-3,4-dihydro-2H-benzo[b][1,4]oxazin-6-yl)amino)-2-((S)-2,6-dioxopiperidin-3-yl)isoindoline-1,3-dione] | 29 nM | 17 nM | +++ (+++ = AUC ≥ 150) |
| Cc1cc(-c2cc3c(cc2Nc2cccc4c2C(=O)N([C@H]2CCC(=O)NC2=O)C4=O)N(C)[C@@H](C)CO3)ccn1 [Compound 4, 4-(((S)-3,4-dimethyl-7-(2-methylpyridin-4-yl)-3,4-dihydro-2H-benzo[b][1,4]oxazin-6-yl)amino)-2-((S)-2,6-dioxopiperidin-3-yl)isoindoline-1,3-dione] | 26 nM | 83 nM | +++ (+++ = AUC ≥ 150) |
| Cc1cc(-c2cc3c(cc2Nc2cccc4c2C(=O)N([C@H]2CCC(=O)NC2=O)C4=O)N(C)C(=O)[C@H](C)O3)ccn1 [Compound 5, 4-(((S)-2,4-dimethyl-7-(2-methylpyridin-4-yl)-3-oxo-3,4-dihydro-2H-benzo[b][1,4]oxazin-6-yl)amino)-2-((S)-2,6-dioxopiperidin-3-yl)isoindoline-1,3-dione] | 19 nM | 15 nM | + (+ = 15 ≤ AUC < 100) |
| Cc1cc(-c2cc3c(cc2Nc2cccc4c2C(=O)N([C@H]2CCC(=O)NC2=O)C4=O)N(C)C(=O)[C@@H](C)O3)ccn1 [Compound 6, 4-(((R)-2,4-dimethyl-7-(2-methylpyridin-4-yl)-3-oxo-3,4-dihydro-2H-benzo[b][1,4]oxazin-6-yl)amino)-2-((S)-2,6-dioxopiperidin-3-yl)isoindoline-1,3-dione] | 49 nM | 9 nM | + (+ = 15 ≤ AUC < 100) |
| Cc1cc(-c2cc3c(cc2Nc2cccc4c2C(=O)N([C@H]2CCC(=O)NC2=O)C4=O)N(C)C(=O)CO3)c(F)cn1 [Compound 7, (S)-2-(2,6-dioxopiperidin-3-yl)-4-((7-(5-fluoro-2-methylpyridin-4-yl)-4-methyl-3-oxo-3,4-dihydro-2H-benzo[b][1,4]oxazin-6-yl)amino)isoindoline-1,3-dione] | 9 nM | 7 nM | +++ (+++ = AUC ≥ 150) |
| Cc1cc(-c2cc3c(cc2Nc2cccc4c2C(=O)N([C@H]2CCC(=O)NC2=O)C4=O)N(C)C(=O)CO3)cc(C)n1 [Compound 8, (S)-4-((7-(2,6-dimethylpyridin-4-yl)-4-methyl-3-oxo-3,4-dihydro-2H-benzo[b][1,4]oxazin-6-yl)amino)-2-(2,6-dioxopiperidin-3-yl)isoindoline-1,3-dione] | 21 nM | 15 nM | +++ (+++ = AUC ≥ 150) |

Continued, in another order:

| DC50 (ZBTB7A) | DC50 (WIZ) | SMILES | HBF AUC (HbF) |
| --- | --- | --- | --- |
| 32 nM | 24 nM | CN1C(=O)COc2cc(-c3ccnc(C(F)F)c3)c(Nc3cccc4c3C(=O)N([C@H]3CCC(=O)NC3=O)C4=O)cc21 [Compound 9, (S)-4-((7-(2-(difluoromethyl)pyridin-4-yl)-4-methyl-3-oxo-3,4-dihydro-2H-benzo[b][1,4]oxazin-6-yl)amino)-2-(2,6-dioxopiperidin-3-yl)isoindoline-1,3-dione] | + (+ = 15 ≤ AUC < 100) |
| 20 nM | 12 nM | Cc1cc(-c2cc3c(cc2Nc2cccc4c2C(=O)N([C@H]2CCC(=O)NC2=O)C4=O)N(C)C(=O)CO3)cc(N)n1 [Compound 10, (S)-4-((7-(2-amino-6-methylpyridin-4-yl)-4-methyl-3-oxo-3,4-dihydro-2H-benzo[b][1,4]oxazin-6-yl)amino)-2-(2,6-dioxopiperidin-3-yl)isoindoline-1,3-dione] | ++ (++ = 100 ≤ AUC < 150) |
| 17 nM | 21 nM | Cc1cc(-c2cc3c(cc2Nc2cccc4c2C(=O)N([C@H]2CCC(=O)NC2=O)C4=O)N(C)C(=O)OC3)ccn1 [Compound 11, (S)-2-(2,6-dioxopiperidin-3-yl)-4-((1-methyl-6-(2-methylpyridin-4-yl)-2-oxo-1,4-dihydro-2H-benzo[d][1,3]oxazin-7-yl)amino)isoindoline-1,3-dione] | ++ (++ = 100 ≤ AUC < 150) |
| 43 nM | 26 nM | Cc1cc(-c2cc3c(cc2Nc2cccc4c2C(=O)N(C2CCC(=O)NC2=O)C4=O)N(C)C(=O)C(C)(C)C3)ccn1 (centres unmarked) [Compound 85, 2-(2,6-dioxopiperidin-3-yl)-4-((1,3,3-trimethyl-6-(2-methylpyridin-4-yl)-2-oxo-1,2,3,4-tetrahydroquinolin-7-yl)amino)isoindoline-1,3-dione] | – |
